The subject of series [1] is Staphylococcus aureus. The experiment in a line: Bactericidal activity against Staphylococcus aureus incubated for overnight. The series is classed as functional.
Series [2] in a line: Hemolytic activity in human RBC at 100 ug/ml incubated for 1 hr. The series is classed as toxicity, cell-based, Erythrocyte. The note with it: human red blood cells (erythrocytes), at 100 µg/mL, read-out: Activity.
Series [3] deals with Acinetobacter baumannii. The series can be described thus: Bactericidal activity against Acinetobacter baumannii incubated for overnight. The class given is functional.
The test system of series [4] is Vibrio vulnificus. The series can be described thus: Antibacterial activity against Vibrio vulnificus 204 incubated for 16 to 20 hrs. The note with it: time 16-20 hrs. The class given is functional.
Series [5] concerns Klebsiella aerogenes. The series can be described thus: Bactericidal activity against Enterobacter aerogenes incubated overnight. The series is classed as functional.
Series [6] deals with Vibrio anguillarum. The experiment in a line: Bactericidal activity against Listonella anguillarum incubated overnight. The class given is functional.
For series [7], the system named is Vibrio harveyi. The series can be described thus: Bactericidal activity against Vibrio harveyi incubated overnight. The class given is functional.
Series [8] concerns Klebsiella pneumoniae. The series can be described thus: Antibacterial activity against NDM Klebsiella pneumoniae incubated for 16 to 20 hrs. The class given is functional. The note with it: time 16-20 hrs.
The test system of series [9] is Vibrio vulnificus. The series can be described thus: Antibacterial activity against Vibrio vulnificus V1 incubated for 16 to 20 hrs. The series is classed as functional. The following applies: time 16-20 hrs.
Series [10] concerns Vibrio alginolyticus. The experiment in a line: Bactericidal activity against Vibrio alginolyticus incubated overnight. The class given is functional.
Series [11] has as its system Vibrio vulnificus. The series can be described thus: Bactericidal activity against Vibrio vulnificus V3 incubated overnight. The class given is functional.
The subject of series [12] is Klebsiella aerogenes. The series can be described thus: Antibacterial activity against Enterobacter aerogenes incubated for 16 to 20 hrs. The series is classed as functional. The following applies: time 16-20 hrs.
The subject of series [13] is Streptococcus iniae. The experiment in a line: Bactericidal activity against Streptococcus iniae incubated overnight. The class given is functional.
For series [14], the system named is Streptococcus iniae. The series can be described thus: Antibacterial activity against Streptococcus iniae incubated for 16 to 20 hrs. The class given is functional. The following applies: time 16-20 hrs.
In series [15] the test system is Pseudomonas aeruginosa. The series can be described thus: Bactericidal activity against Pseudomonas aeruginosa incubated overnight. The series is classed as functional.
The test system of series [16] is Klebsiella oxytoca. The series can be described thus: Bactericidal activity against Klebsiella oxytoca incubated overnight. The class given is functional.
Series [17] relates to Enterococcus faecium. The experiment in a line: Bactericidal activity against Enterococcus faecium incubated overnight. The series is classed as functional.
Series [18] deals with Edwardsiella tarda. The series can be described thus: Bactericidal activity against Edwardsiella tarda incubated overnight. The series is classed as functional.
Series [19] deals with Escherichia coli. The series can be described thus: Bactericidal activity against Escherichia coli incubated overnight. The class given is functional.
For series [20], the system named is Vibrio alginolyticus. The experiment in a line: Antibacterial activity against Vibrio alginolyticus incubated for 16 to 20 hrs. The series is classed as functional. The following applies: time 16-20 hrs.
Series [21] deals with Vibrio vulnificus. The series can be described thus: Bactericidal activity against Vibrio vulnificus V2 incubated overnight. The class given is functional.
Series [22] concerns Klebsiella pneumoniae. The experiment in a line: Bactericidal activity against NDM Klebsiella pneumoniae incubated overnight. The class given is functional.
For series [23], the system named is Streptococcus agalactiae. The series can be described thus: Bactericidal activity against Streptococcus agalactiae incubated overnight. The series is classed as functional.
Series [24] deals with Klebsiella oxytoca. The series can be described thus: Antibacterial activity against Klebsiella oxytoca incubated for 16 to 20 hrs. The class given is functional. The note with it: time 16-20 hrs.
The test system of series [25] is Enterococcus faecium. The experiment in a line: Antibacterial activity against Enterococcus faecium incubated for 16 to 20 hrs. The class given is functional. The note with it: time 16-20 hrs.
For series [26], the system named is Salmonella enterica. The experiment in a line: Bactericidal activity against Salmonella enterica incubated overnight. The class given is functional.
Series [27] has as its system Staphylococcus haemolyticus. The series can be described thus: Bactericidal activity against Staphylococcus haemolyticus incubated overnight. The series is classed as functional.
The subject of series [28] is Vibrio anguillarum. The series can be described thus: Antibacterial activity against Listonella anguillarum incubated for 16 to 20 hrs. The series is classed as functional. The following applies: time 16-20 hrs.
Series [29] relates to Salmonella typhimurium. The series can be described thus: Bactericidal activity against Salmonella typhimurium incubated overnight. The following applies: Salmonella enterica. The class given is functional, Salmonella enterica subsp. enterica serovar Typhimurium.
For series [30], the system named is Candida tropicalis. The series can be described thus: Fungicidal activity against Candida tropicalis incubated overnight. The class given is functional.
Series [31] deals with Edwardsiella tarda. The experiment in a line: Antibacterial activity against Edwardsiella tarda incubated for 16 to 20 hrs. The class given is functional. The note with it: time 16-20 hrs.
Series [32] deals with Salmonella typhimurium. The experiment in a line: Antibacterial activity against Salmonella typhimurium incubated for 16 to 20 hrs. The class given is functional, Salmonella enterica subsp. enterica serovar Typhimurium. The note with it: Salmonella enterica; time 16-20 hrs.
For series [33], the system named is Enterococcus faecalis. The series can be described thus: Bactericidal activity against Enterococcus faecalis incubated overnight. The class given is functional.
In series [34] the test system is Vibrio harveyi. The experiment in a line: Antibacterial activity against Vibrio harveyi incubated for 16 to 20 hrs. The class given is functional. The following applies: time 16-20 hrs.
For series [35], the system named is Salmonella enterica. The series can be described thus: Antibacterial activity against Salmonella enterica incubated for 16 to 20 hrs. The class given is functional. The note with it: time 16-20 hrs.
Series [36] concerns Nakaseomyces glabratus. The experiment in a line: Fungicidal activity against Candida glabrata incubated overnight. The series is classed as functional.
Series [37] relates to Vibrio vulnificus. The series can be described thus: Bactericidal activity against Vibrio vulnificus V1 incubated overnight. The series is classed as functional.
Series [38] relates to Vibrio vulnificus. The series can be described thus: Antibacterial activity against Vibrio vulnificus V3 incubated for 16 to 20 hrs. The following applies: time 16-20 hrs. The series is classed as functional.
Series [39] deals with Escherichia coli. The series can be described thus: Antibacterial activity against Escherichia coli incubated for 16 to 20 hrs. The class given is functional. The note with it: time 16-20 hrs.
Series [40] relates to Nakaseomyces glabratus. The experiment in a line: Antifungal activity against Candida glabrata incubated for 16 to 20 hrs. The note with it: time 16-20 hrs. The class given is functional.
For series [41], the system named is Pseudomonas aeruginosa. The series can be described thus: Antibacterial activity against Pseudomonas aeruginosa incubated for 16 to 20 hrs. The series is classed as functional. The following applies: time 16-20 hrs.
Series [42] relates to Staphylococcus haemolyticus. The series can be described thus: Antibacterial activity against Staphylococcus haemolyticus incubated for 16 to 20 hrs. The class given is functional. The note with it: time 16-20 hrs.
Series [43] relates to Enterococcus faecalis. The experiment in a line: Antibacterial activity against Enterococcus faecalis incubated for 16 to 20 hrs. The note with it: time 16-20 hrs. The series is classed as functional.
The subject of series [44] is Streptococcus agalactiae. The series can be described thus: Antibacterial activity against Streptococcus agalactiae incubated for 16 to 20 hrs. The following applies: time 16-20 hrs. The series is classed as functional.
Series [45] deals with Aeromonas hydrophila. The series can be described thus: Antibacterial activity against Aeromonas hydrophila incubated for 16 to 20 hrs. The class given is functional. The note with it: time 16-20 hrs.
Series [46] has as its system Aeromonas hydrophila. The series can be described thus: Bactericidal activity against Aeromonas hydrophila incubated overnight. The series is classed as functional.
The subject of series [47] is Vibrio vulnificus. The series can be described thus: Antibacterial activity against Vibrio vulnificus V2 incubated for 16 to 20 hrs. The class given is functional. The following applies: time 16-20 hrs.
Series [48] deals with Candida tropicalis. The experiment in a line: Antifungal activity against Candida tropicalis incubated for 16 to 20 hrs. The class given is functional. The following applies: time 16-20 hrs.
Series [49] deals with Vibrio vulnificus. The series can be described thus: Bactericidal activity against Vibrio vulnificus 204 incubated overnight. The series is classed as functional.

For the substance H-FKWKSVLKIVKIFVKIYF-OH, the minimal bactericidal concentration (MBC) (usually the lowest tested concentration that kills the bacteria rather than only halting them) in [1] is greater than 100 µg/mL; in [3] it was 12.5 µg/mL. Also, the hemolysis at 1 h, 100 ug/ml in [2] stood at 14.2%.
With H-GECIWDAIFHGAKHFLHRLVNP-OH, the minimal bactericidal concentration (MBC) in [1] and in [3] was greater than 100 µg/mL in each case. In addition, the hemolysis at 1 h, 100 ug/ml in series [2] is 28.5%.
For the substance H-GKCIAKAIFKGAKKFLKKLVNP-OH, the MBC was greater than 100 µg/mL in series [1] and 3.12 µg/mL in series [3]. Moreover, in series [2], the hemolysis at 1 h, 100 ug/ml was 16.7%.
Turning to H-GKCIAKAIFKGAKKLLKKLVNP-OH, the MBC in series [1] is 100 µg/mL; in series [3], 3.12 µg/mL. Moreover, the hemolysis at 1 h, 100 ug/ml in series [2] was 25.8%.
In the case of H-GKCIAKAILKGAKKLLKKLVNP-OH, the minimum bactericidal concentration (MBC) in series [1] stood at 100 µg/mL; in [3], 1.56 µg/mL. In [2], the hemolysis at 1 h, 100 ug/ml worked out at 31.8%.
With H-GKCIWKAIFKGAKKFLKKLVNP-OH, the MBC was found to be 50 µg/mL in [1] and 1.56 µg/mL in [3]. Further, the hemolysis at 1 h, 100 ug/ml in series [2] was determined as 72.4%.
Take H-KKCIAKAILKKADDLLDDLVNP-OH: the MBC in series [1] and in series [3] was greater than 100 µg/mL in each case. Besides, the hemolysis at 1 h, 100 ug/ml in series [2] is 0%.
On to H-KKCIAKAILKKAKDLLDDLVNP-OH, for which the MBC in series [1] was greater than 100 µg/mL; in series [3] it was 50 µg/mL. Further, in series [2], the hemolysis at 1 h, 100 ug/ml was 0%.
Consider H-KKCIAKAILKKAKKLLDDLVNP-OH, for which the results for the minimal bactericidal concentration (MBC) in series [1] and in series [3] were greater than 100 µg/mL and 6.25 µg/mL, respectively. In addition, in series [2], the hemolysis at 1 h, 100 ug/ml was 0%.
For H-KKCIAKAILKKAKKLLKDLVNP-OH, the minimal inhibitory concentration (MIC) (commonly the lowest concentration found to suppress growth) worked out at 12.5 µg/mL in series [4]; 50 µg/mL in series [8]; 12.5 µg/mL in series [9]; 12.5 µg/mL in series [12]; 3.12 µg/mL in [14]; 6.25 µg/mL in [20]. The MIC in [24] was 50 µg/mL; in series [25] it was greater than 100 µg/mL; in [28], 50 µg/mL; in [31], greater than 100 µg/mL; in [32] it was 100 µg/mL; in [34] it was greater than 100 µg/mL. For the same substance, the MIC was 25 µg/mL in series [35]; 12.5 µg/mL in series [38]; 50 µg/mL in series [39]; greater than 100 µg/mL in series [40]; 100 µg/mL in [41]; less than 1.56 µg/mL in series [42]. Also, the MIC in series [43] is 50 µg/mL; in series [44] it was 3.12 µg/mL; in series [45] it was greater than 100 µg/mL; in series [47], 12.5 µg/mL; in series [48], greater than 100 µg/mL. The MBC was 12.5 µg/mL in [5]; 100 µg/mL in series [6]; greater than 100 µg/mL in series [7]; 6.25 µg/mL in series [10]; 12.5 µg/mL in [11]; 3.12 µg/mL in series [13]. Moreover, the minimal bactericidal concentration (MBC) is greater than 100 µg/mL in series [15]; 50 µg/mL in [16]; greater than 100 µg/mL in series [17]; greater than 100 µg/mL in [18]; 50 µg/mL in [19]; 12.5 µg/mL in series [21]. The minimum bactericidal concentration (MBC) in series [22] is 50 µg/mL; in series [23], 3.12 µg/mL; in series [1], greater than 100 µg/mL; in series [26] it was 25 µg/mL; in [27] it was less than 1.56 µg/mL; in [29], 100 µg/mL. Moreover, the MBC was greater than 100 µg/mL in series [33]; 12.5 µg/mL in [37]; 1.56 µg/mL in series [3]; greater than 100 µg/mL in series [46]; 12.5 µg/mL in series [49]. Further, the MFC in [30] and in [36] was greater than 100 µg/mL in each case. Moreover, the hemolysis at 1 h, 100 ug/ml in [2] was 3.7%.

Values taken from ChEMBL document CHEMBL5346873, “Strategic modification of low-activity natural antimicrobial peptides confers antibacterial potential in vitro and in vivo” (Eur J Med Chem, 2023).
